# Laboratory results from US8188100B2, “Adenosine derivatives as A2A receptor agonists” (Novartis AG, priority 2006, dated 2012).
# Target: adenosine A2A receptor (Homo sapiens, UniProt P29274)
# Experiment: adenosine A2A receptor agonist assay (method of Murphree et al.)
# Format: binding
# Conditions: method described by Murphree et al., Mol Pharmacol, Vol. 61, pp. 455-462 (2002)
# Excerpt: Compounds of formula (I) and their pharmaceutically acceptable salts are useful as pharmaceuticals. In particular, they activate the adenosine A2A receptor, i.e., they act as A2A receptor agonists.
# Sequence of adenosine A2A receptor (P29274 whole entry): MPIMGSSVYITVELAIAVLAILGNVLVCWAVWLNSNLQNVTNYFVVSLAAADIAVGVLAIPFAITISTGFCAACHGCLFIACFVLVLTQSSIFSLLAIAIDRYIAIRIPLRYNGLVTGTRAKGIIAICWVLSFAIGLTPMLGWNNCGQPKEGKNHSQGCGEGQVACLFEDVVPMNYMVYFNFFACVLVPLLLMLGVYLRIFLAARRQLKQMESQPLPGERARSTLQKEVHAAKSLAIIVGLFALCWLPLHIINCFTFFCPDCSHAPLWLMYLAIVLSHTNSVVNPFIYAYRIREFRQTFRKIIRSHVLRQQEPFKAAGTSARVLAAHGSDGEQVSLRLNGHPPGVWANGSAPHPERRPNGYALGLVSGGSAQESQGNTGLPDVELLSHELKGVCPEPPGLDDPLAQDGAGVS
structure (smiles),measurement,value
"CCC(=O)N[C@H]1C[C@@H](n2cnc3c(NCC(c4ccccc4)c4ccccc4)nc(N4CC[C@@H](Nc5nc(Cl)nc6c5ncn6[C@@H]5C[C@H](NC(=O)CC)[C@@H](O)[C@H]5O)C4)nc32)[C@H](O)[C@@H]1O [Example 1, {(1S,2R,3S,4R)-4-[2-{(R)-3-[2-Chloro-9-((1R,2S,3R,4S)-2,3-dihydroxy-4-propionylamino-cyclopentyl)-9H-purin-6-ylamino]-pyrrolidin-1-yl}-6-(2,2-diphenyl-ethylamino)-purin-9-yl]-2,3-dihydroxy-cyclopentyl}-propionamide]",Ki,760 nM
